# Measured values as given in patent US7241733B2, “Mammalian EPO mimetic CH1 deleted mimetibodies, compositions, methods and uses” (Centocor, Inc., priority 2003, dated 2007).
# “Also recorded” adds a separate entry of the source.
# Assays:
# [1] = test system: cells that express the EPO receptor; experiment: complement lysis of cells that express the EPO receptor; assay type: cell-based; conditions: preliminary studies
# Text: It has been shown that mutation of two […] (L) residues, L234 & L235, in the IgG1 lower hinge region to alanine (A) will abrogate the ability of the immunoglobulin to mediate complement dependent cytotoxicity (CDC) and antibody dependant cellular cytotoxicity (ADCC) (Hezereh et al., 2001, J. Virol., vol. 75 (24), 12161-68). […] This may be due to the low number of receptors that are found on erythroid progenitor cells. In addition the in vivo expansion of erythriod progenitors as evidenced by significant increases in hematocrit supports the possible functional irrelevance of immune effector functions. However, while no effector function associated affects have been observed, there remains an interest in introducing these mutations as a precautionary step.
# [2] = serum concentrations measured by ELISA in normal mice; assay type: in vivo
# Description: (§1) In vivo studies were done in normal mice to compare the half-life of EMP-NfusCG1 to that of rHuEPO and to compare their effects on erythropoiesis. […] Also seen in preliminary studies, when rHuEPO was dosed at 2000 U/kg the hematocrit of the mice was maximally elevated on day 4 and fell back to near baseline levels by day 7. […] The difference in molecular weights was also taken into consideration (rHuEPO=30,400 daltons, EMP-NfusCG1=62,200 daltons).
# The serum concentrations of both rHuEPO and EMP-NfusCG1 were measured by ELISA. […] This is consistent with the expected 2 to 8 hour half-life of rHuEPO in rodents. (PRI Expert Report, Part IC2: Toxico-Pharmacological Documentation). In contrast, levels of EMP-NfusCG1 as high as 1.5 ug/mL were detected on day 4 and remained high through the end of the study. The linearity of the clearance profile in FIG. 6 is unusual. It may be that, since the first time point was 3 days after the last injection, the maximum concentration (Cmax) was reached before the first sample was taken and therefore the peak of the exponential curve was not observed. Another explanation is that the absorption and elimination profiles of this novel construct are such that the clearance profile appears linear.
# [3] = test system: normal mice; experiment: in vivo erythropoiesis (hematocrit) in normal mice; conditions: equal activity units
# Description: as §1
# [4] = 50% serum; cited from earlier work
# [5] = test system: EPO dependent UT-7/EPO cell line; experiment: in vitro bioactivity assay: UT-7/EPO cell viability after rHuEPO withdrawal (MTS); assay type: cell-based, human
# Description: The activity of EMP-NfusCG1 was first tested in an in vitro bioactivity assay. For this assay, the EPO dependent UT-7/EPO cell line, derived from a patient with acute megakaryoblastic leukemia, was used (Komatsu et al., 1993, Blood, vol. 82 (2), 456-464). These cells undergo programmed cell death 48 to 72 hours after withdraw from media supplemented with rHuEPO. Cells that have been incubated in the absence of rHuEPO for 24 hours can be saved if treated with rHuEPO or an EPO agonist. EMP-NfusCG1 was added to cells starved without rHuEPO and cell viability was determined 48 hours after treatment using the tetrazolium compound MTS (CellTiter 96 Aqueous One Solution, Promega) that is metabolized by living cells to yield a product with an absorbance that can be measured. […] In addition, these same cells were stimulated with EMP-NfusCG1 and tyrosine phosphorylation patterns visualized by running cell lysate through a polyacrylamide gel.
substance,measurement,setting,value
"EMP-NfusCG1: EMP-1 peptide, two Gly-Gly-Gly-Ser repeats, human J region, IgG1 hinge, CH2 and CH3; SEQ ID NO:50",complement lysis of cells that express the EPO receptor,[1],does not mediate complement lysis
same,serum level detected on day 4,"[2]; day 4, ELISA",≤ 1500 ng/mL
same,approximate half-life,"[2]; normal mice, calculated from serum clearance profile",~259 h
same,duration of hematocrit response compared to rHuEPO,[3],elevated levels are maintained for a longer period; also recorded: prolonged
same,maximal hematocrit response compared to rHuEPO,[3],significantly higher maximal hematocrit; also recorded: higher maximal response
"EMP-1: 20 amino acid peptide with no sequence homology to HuEPO, able (as a dimer) to activate the EPO receptor (GGTYSCHFGPLTWVCKPQGG)",ex-vivo half-life,[4],8 h
EMP-NfusCG4: identical to EMP-NfusCG1 except that the hinge and constant regions are of the G4 subtype; SEQ ID NO:51,EC50,[5]; average,0.35 nM
same,"potency relative to EMP-NfusCG1 (fold less), on average",[5]; average of assays,about 10 fold
same,expected difference to rHuEPO,[5]; worked out from 10 fold vs EMP-NfusCG1 and 5 fold vs rHuEPO,about 50 fold
